Molecules are shown by their SMILES.

One assay deals with COR-L23. Kind of assay: relative viability (nuclei count vs DMSO), 5 days (fraction); higher = more cells survive. Conditions: first compound 0.8 µM. Summed up: (§1)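 Dosing by pin tool came one day after lung cancer cell lines were seeded in 1536-well plates, using either one drug or a fixed anchor-drug dose plus five library-drug doses (not always all listed) in √10 steps. After 5 days, nuclei were counted on 4× images. Relative viability is treated-well nuclei count divided by vehicle-well nuclei count, and values are medians of duplicate plates.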
`Nc1cccc2c1CN(C1CCC(=O)NC1=O)C2=O` (configuration not stated) [Lenalidomide] + Nc1nc2[nH]cc(CCc3ccc(C(=O)N[C@@H](CCC(=O)O)C(=O)O)cc3)c2c(=O)[nH]1 [Pemetrexed] (partner 0.2 µM) showed a relative viability of 0.191.
In the case of `Nc1cccc2c1CN(C1CCC(=O)NC1=O)C2=O` (configuration not stated) [Lenalidomide] + CC(=O)c1c(C)c2cnc(Nc3ccc(N4CCNCC4)cn3)nc2n(C2CCCC2)c1=O [Palbociclib] (partner 0.5 µM), the relative viability is 0.34.
`Nc1cccc2c1CN(C1CCC(=O)NC1=O)C2=O` (configuration not stated) [Lenalidomide] + O=C(CCCCCCC(=O)Nc1ccccc1)NO [Vorinostat] (partner 1 µM) showed a relative viability of 0.408.
The molecule `Nc1cccc2c1CN(C1CCC(=O)NC1=O)C2=O` (configuration not stated) [Lenalidomide] + COc1cccc2cc(-c3nc([C@H]4CC[C@H](C(=O)O)CC4)n4ncnc(N)c34)[nH]c12 [OSI-027] (partner 0.5 µM) returned a relative viability of 0.776.

Staying with this assay, now noted: first compound 2.53 µM.
For `Nc1cccc2c1CN(C1CCC(=O)NC1=O)C2=O` (configuration not stated) [Lenalidomide] + Nc1ncn([C@H]2C[C@H](O)[C@@H](CO)O2)c(=O)n1 [Decitabine] (partner 2 µM), the relative viability turned out to be 0.491.
The molecule `Nc1cccc2c1CN(C1CCC(=O)NC1=O)C2=O` (configuration not stated) [Lenalidomide] + N=C(N)NC(=N)NCCc1ccccc1 [Phenformin] (partner 250 µM) had a relative viability of 0.508.
The molecule `Nc1cccc2c1CN(C1CCC(=O)NC1=O)C2=O` (configuration not stated) [Lenalidomide] + Nc1nc2[nH]cc(CCc3ccc(C(=O)N[C@@H](CCC(=O)O)C(=O)O)cc3)c2c(=O)[nH]1 [Pemetrexed] (partner 0.2 µM) gave a relative viability of 0.191.
Consider `Nc1cccc2c1CN(C1CCC(=O)NC1=O)C2=O` (configuration not stated) [Lenalidomide] + CC(=O)c1c(C)c2cnc(Nc3ccc(N4CCNCC4)cn3)nc2n(C2CCCC2)c1=O [Palbociclib] (partner 0.5 µM), for which the relative viability turned out to be 0.308.
Regarding `Nc1cccc2c1CN(C1CCC(=O)NC1=O)C2=O` (configuration not stated) [Lenalidomide] + O=C(CCCCCCC(=O)Nc1ccccc1)NO [Vorinostat] (partner 1 µM), the relative viability came to 0.498.
For the molecule `Nc1cccc2c1CN(C1CCC(=O)NC1=O)C2=O` (configuration not stated) [Lenalidomide] + COc1cccc2cc(-c3nc([C@H]4CC[C@H](C(=O)O)CC4)n4ncnc(N)c34)[nH]c12 [OSI-027] (partner 0.5 µM), the relative viability turned out to be 0.892.

Still in this assay, the particulars now being: first compound 8 µM.
`Nc1cccc2c1CN(C1CCC(=O)NC1=O)C2=O` (configuration not stated) [Lenalidomide] + Nc1ncn([C@H]2C[C@H](O)[C@@H](CO)O2)c(=O)n1 [Decitabine] (partner 2 µM) displayed a relative viability of 0.409.
For the molecule `Nc1cccc2c1CN(C1CCC(=O)NC1=O)C2=O` (configuration not stated) [Lenalidomide] + N=C(N)NC(=N)NCCc1ccccc1 [Phenformin] (partner 250 µM), the relative viability was determined as 0.45.
`Nc1cccc2c1CN(C1CCC(=O)NC1=O)C2=O` (configuration not stated) [Lenalidomide] + Nc1nc2[nH]cc(CCc3ccc(C(=O)N[C@@H](CCC(=O)O)C(=O)O)cc3)c2c(=O)[nH]1 [Pemetrexed] (partner 0.2 µM) showed a relative viability of 0.189.
For the molecule `Nc1cccc2c1CN(C1CCC(=O)NC1=O)C2=O` (configuration not stated) [Lenalidomide] + CC(=O)c1c(C)c2cnc(Nc3ccc(N4CCNCC4)cn3)nc2n(C2CCCC2)c1=O [Palbociclib] (partner 0.5 µM), the relative viability is 0.348.
`Nc1cccc2c1CN(C1CCC(=O)NC1=O)C2=O` (configuration not stated) [Lenalidomide] + O=C(CCCCCCC(=O)Nc1ccccc1)NO [Vorinostat] (partner 1 µM) displayed a relative viability of 0.509.
As to `Nc1cccc2c1CN(C1CCC(=O)NC1=O)C2=O` (configuration not stated) [Lenalidomide] + COc1cccc2cc(-c3nc([C@H]4CC[C@H](C(=O)O)CC4)n4ncnc(N)c34)[nH]c12 [OSI-027] (partner 0.5 µM), the relative viability turned out to be 0.787.

For another assay, the system named is EKVX. The assay is described as above. Conditions: first compound 0.253 µM. Summed up: as §1
Take `Nc1cccc2c1CN(C1CCC(=O)NC1=O)C2=O` (configuration not stated) [Lenalidomide] + Nc1ncn([C@H]2C[C@H](O)[C@@H](CO)O2)c(=O)n1 [Decitabine] (partner 2 µM): the relative viability was 0.326.
The same measure, in the same setting: under `Nc1cccc2c1CN(C1CCC(=O)NC1=O)C2=O` (configuration not stated) [Lenalidomide] + N=C(N)NC(=N)NCCc1ccccc1 [Phenformin] (partner 250 µM) stands 0.23; under `Nc1cccc2c1CN(C1CCC(=O)NC1=O)C2=O` (configuration not stated) [Lenalidomide] + Nc1nc2[nH]cc(CCc3ccc(C(=O)N[C@@H](CCC(=O)O)C(=O)O)cc3)c2c(=O)[nH]1 [Pemetrexed] (partner 0.2 µM), 0.333; under `Nc1cccc2c1CN(C1CCC(=O)NC1=O)C2=O` (configuration not stated) [Lenalidomide] + CC(=O)c1c(C)c2cnc(Nc3ccc(N4CCNCC4)cn3)nc2n(C2CCCC2)c1=O [Palbociclib] (partner 0.5 µM), 0.415.
Same read-out and setting: the figure for `Nc1cccc2c1CN(C1CCC(=O)NC1=O)C2=O` (configuration not stated) [Lenalidomide] + O=C(CCCCCCC(=O)Nc1ccccc1)NO [Vorinostat] (partner 1 µM) is 0.765.
Regarding `Nc1cccc2c1CN(C1CCC(=O)NC1=O)C2=O` (configuration not stated) [Lenalidomide] + COc1cccc2cc(-c3nc([C@H]4CC[C@H](C(=O)O)CC4)n4ncnc(N)c34)[nH]c12 [OSI-027] (partner 0.5 µM), the relative viability came to 0.724.

The same assay, now with this note: first compound 0.8 µM.
`Nc1cccc2c1CN(C1CCC(=O)NC1=O)C2=O` (configuration not stated) [Lenalidomide] + Nc1ncn([C@H]2C[C@H](O)[C@@H](CO)O2)c(=O)n1 [Decitabine] (partner 2 µM) returned a relative viability of 0.4.
`Nc1cccc2c1CN(C1CCC(=O)NC1=O)C2=O` (configuration not stated) [Lenalidomide] + N=C(N)NC(=N)NCCc1ccccc1 [Phenformin] (partner 250 µM) returned a relative viability of 0.211.
Consider `Nc1cccc2c1CN(C1CCC(=O)NC1=O)C2=O` (configuration not stated) [Lenalidomide] + Nc1nc2[nH]cc(CCc3ccc(C(=O)N[C@@H](CCC(=O)O)C(=O)O)cc3)c2c(=O)[nH]1 [Pemetrexed] (partner 0.2 µM), for which the relative viability was 0.33.
As for `Nc1cccc2c1CN(C1CCC(=O)NC1=O)C2=O` (configuration not stated) [Lenalidomide] + CC(=O)c1c(C)c2cnc(Nc3ccc(N4CCNCC4)cn3)nc2n(C2CCCC2)c1=O [Palbociclib] (partner 0.5 µM), the relative viability turned out to be 0.309.
In turn, `Nc1cccc2c1CN(C1CCC(=O)NC1=O)C2=O` (configuration not stated) [Lenalidomide] + O=C(CCCCCCC(=O)Nc1ccccc1)NO [Vorinostat] (partner 1 µM) had a relative viability of 0.668.
As to `Nc1cccc2c1CN(C1CCC(=O)NC1=O)C2=O` (configuration not stated) [Lenalidomide] + COc1cccc2cc(-c3nc([C@H]4CC[C@H](C(=O)O)CC4)n4ncnc(N)c34)[nH]c12 [OSI-027] (partner 0.5 µM), the relative viability turned out to be 0.734.

The assay is the same for the next values; noted with them: first compound 2.53 µM.
Take `Nc1cccc2c1CN(C1CCC(=O)NC1=O)C2=O` (configuration not stated) [Lenalidomide] + Nc1ncn([C@H]2C[C@H](O)[C@@H](CO)O2)c(=O)n1 [Decitabine] (partner 2 µM): the relative viability was 0.336.
Molecule `Nc1cccc2c1CN(C1CCC(=O)NC1=O)C2=O` (configuration not stated) [Lenalidomide] + N=C(N)NC(=N)NCCc1ccccc1 [Phenformin] (partner 250 µM) showed a relative viability of 0.241.
Take `Nc1cccc2c1CN(C1CCC(=O)NC1=O)C2=O` (configuration not stated) [Lenalidomide] + Nc1nc2[nH]cc(CCc3ccc(C(=O)N[C@@H](CCC(=O)O)C(=O)O)cc3)c2c(=O)[nH]1 [Pemetrexed] (partner 0.2 µM): the relative viability worked out at 0.466.
Regarding `Nc1cccc2c1CN(C1CCC(=O)NC1=O)C2=O` (configuration not stated) [Lenalidomide] + CC(=O)c1c(C)c2cnc(Nc3ccc(N4CCNCC4)cn3)nc2n(C2CCCC2)c1=O [Palbociclib] (partner 0.5 µM), the relative viability was determined as 0.355.

Source of the values: the supplement of paper PMC10307832.
